Data published in ChEMBL document CHEMBL1201862, “PubChem BioAssay data set” (2004).
Activity calls are given as the source filed them.

Assays:
[1] = C. albicans growth with fluconazole, confirmation, fluorescence, retest (AID 2467); assay type: functional, cell-based
[2] = target: T1, Heat shock factor protein 1 (Mus musculus, UniProt P38532); assay: HSF1 potentiators in luciferase reporter cells, confirmation, cell-based, NIH3T3, luminescence, dose retest (AID 435004); assay type: functional;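 further: stress induced by proteasome inhibitor MG132 added 30 min after compound; luciferase reporter driven by HSF1 response element in NIH3T3 cells; actives raise luminescence as potentiators of the MG132 stress response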
T1 sequence (P38532 whole entry): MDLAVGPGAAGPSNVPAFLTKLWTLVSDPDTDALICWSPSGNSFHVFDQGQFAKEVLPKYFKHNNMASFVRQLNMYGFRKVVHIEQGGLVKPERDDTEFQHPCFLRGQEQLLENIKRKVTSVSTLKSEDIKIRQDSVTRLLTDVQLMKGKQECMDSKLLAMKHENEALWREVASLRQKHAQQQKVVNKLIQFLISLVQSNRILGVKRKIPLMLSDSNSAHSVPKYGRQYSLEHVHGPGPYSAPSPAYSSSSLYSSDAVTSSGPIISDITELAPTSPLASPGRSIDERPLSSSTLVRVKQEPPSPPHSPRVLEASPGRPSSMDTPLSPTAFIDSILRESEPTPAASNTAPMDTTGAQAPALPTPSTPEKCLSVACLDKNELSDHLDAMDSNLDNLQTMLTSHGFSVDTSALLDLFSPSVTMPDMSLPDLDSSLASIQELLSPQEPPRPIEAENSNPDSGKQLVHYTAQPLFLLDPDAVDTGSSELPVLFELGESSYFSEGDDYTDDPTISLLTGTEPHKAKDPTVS

[3] = NIH-3T3 fibroblast cytotoxicity, dose response, cytotoxicity control, cell-based, fluorescence, Alamar Blue, secondary assay (AID 2327); assay type: functional;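 further: NIH-3T3 mouse fibroblasts cultured with fluconazole at 8 µg/mL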
[4] = target: T2, Carboxy-terminal domain RNA polymerase II polypeptide A small phosphatase 1 (Homo sapiens, UniProt Q9GZU7); assay: inhibitors of CTDSP1, concentration-response testing, biochemical assay, absorbance-based, actives from ultra-high-throughput screening (AID 540297); assay type: functional
T2 sequence (Q9GZU7 whole entry): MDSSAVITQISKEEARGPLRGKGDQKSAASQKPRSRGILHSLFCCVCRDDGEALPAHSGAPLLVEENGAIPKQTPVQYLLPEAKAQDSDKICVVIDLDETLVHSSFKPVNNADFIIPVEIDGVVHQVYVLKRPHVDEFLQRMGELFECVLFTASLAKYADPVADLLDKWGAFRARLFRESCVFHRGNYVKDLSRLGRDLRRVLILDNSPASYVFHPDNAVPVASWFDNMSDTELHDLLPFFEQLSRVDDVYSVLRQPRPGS

[5] = target: T3, Protein skinhead-1 (Caenorhabditis elegans, UniProt P34707); assay type: functional
T3 sequence (P34707 whole entry): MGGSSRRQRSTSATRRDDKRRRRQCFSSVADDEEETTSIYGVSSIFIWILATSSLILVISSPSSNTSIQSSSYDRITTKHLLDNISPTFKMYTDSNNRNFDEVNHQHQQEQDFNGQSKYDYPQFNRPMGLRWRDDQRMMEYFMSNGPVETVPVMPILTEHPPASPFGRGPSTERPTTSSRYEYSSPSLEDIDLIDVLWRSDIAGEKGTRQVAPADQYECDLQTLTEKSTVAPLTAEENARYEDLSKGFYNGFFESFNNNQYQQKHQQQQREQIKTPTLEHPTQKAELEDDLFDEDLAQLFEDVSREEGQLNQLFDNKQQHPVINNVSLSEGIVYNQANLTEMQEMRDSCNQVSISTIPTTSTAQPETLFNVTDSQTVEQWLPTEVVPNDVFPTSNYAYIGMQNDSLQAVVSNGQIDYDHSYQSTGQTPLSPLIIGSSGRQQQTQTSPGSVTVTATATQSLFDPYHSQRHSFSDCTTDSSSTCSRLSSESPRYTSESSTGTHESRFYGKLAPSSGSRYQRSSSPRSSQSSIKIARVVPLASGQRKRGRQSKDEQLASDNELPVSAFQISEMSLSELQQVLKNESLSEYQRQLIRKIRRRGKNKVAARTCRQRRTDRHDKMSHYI

[6] = Luminescence Cell-Based Dose Response HTS to Identify Inhibitors of 5'UTR Stem-Loop Driven Prion Protein mRNA Translation in H4 Neuroglioblastoma Cells. [Related pubchem assays: 1827 (Project Summary), 1813 (Primary HTS)]; assay type: functional
[7] = inhibitors of firefly luciferase expression or activity, dose response, H4 neuroglioma cells, luminescence (AID 1990); assay type: functional, cell-based
[8] = inhibitors of SNCA 5'UTR-driven reporter translation, confirmation, H4 neuroglioma cells, luminescence (AID 1988); assay type: functional, cell-based
[9] = Luminescence Cell-Based Dose Response HTS to Identify Activators of Luciferase Translation or Activity in H4 […] Cells. [Related pubchem assays: 1829 (Project Summary), 1814 (Primary HTS)]; assay type: functional
[10] = test system: H4; assay: Luminescence Cell-Based Dose Response HTS to Identify Activators of 5'UTR Stem-Loop Driven Prion Protein mRNA Translation in H4 Neuroglioblastoma Cells. [Related pubchem assays: 1829 (Project Summary), 1814 (Primary HTS)]; assay type: functional; conditions: Homo sapiens
[11] = inhibitors of clade B AD8 Env fusion, dose response, cell-based, cherry-pick (AID 652062); assay type: functional;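 further: luciferase signal from cell-cell fusion driven by HIV-1 clade B AD8 Env; potency is for inhibitors of fusion seen as a drop in luminescence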
[12] = P. falciparum Dd2 growth inhibitors, dose response, SYBR Green, dry powder samples (AID 1159566); assay type: functional, cell-based;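 further: potency for growth inhibition with lower SYBR green DNA signal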
[13] = P. falciparum ATP4 D1247Y mutant growth inhibitors, dose response, NITD609-resistant line, SYBR Green, dry powder (AID 1159571); assay type: functional, cell-based;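 further: parasites synchronized at ring stage by sorbitol before testing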
[14] = P. falciparum Dd2 growth inhibitors, dose response, SYBR Green, cherry-picked samples (AID 1159567); assay type: functional, cell-based
[15] = P. falciparum 3D7-ScDHODH growth inhibitors, dose response, SYBR Green, dry powder samples (AID 1159570); assay type: functional, cell-based;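 further: parasite growth measured after 72 hours of compound exposure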
[16] = microbe, parasite or virus in culture; assay type: functional; conditions: Mycobacterium tuberculosis
[17] = Luminescence Cell-Based Dose Retest to Confirm Inhibitors of Cancer Stem Cells. [Related pubchem assays (depositor defined):AID2717, AID2721]; assay type: functional; conditions: Homo sapiens
[18] = target: T4, Polyadenylate-binding protein 1 (Homo sapiens, UniProt P11940); assay: PABP1 MLLE–PAM2 interaction inhibitors, dose response, miRNA deadenylation inhibitor project, biochemical, fluorescence polarization, Cy5-PAM2 peptide, secondary (AID 602260); assay type: functional; conditions: read-out: IC50_Mean
[19] = target: T4, Polyadenylate-binding protein 1; assay: PABP1 MLLE–PAM2 binding inhibitor potency, dose response, biochemical, fluorescence polarization, FITC-PAM2 peptide (AID 602259); assay type: functional; conditions: read-out: IC50_Mean

T4 sequence (P11940 whole entry): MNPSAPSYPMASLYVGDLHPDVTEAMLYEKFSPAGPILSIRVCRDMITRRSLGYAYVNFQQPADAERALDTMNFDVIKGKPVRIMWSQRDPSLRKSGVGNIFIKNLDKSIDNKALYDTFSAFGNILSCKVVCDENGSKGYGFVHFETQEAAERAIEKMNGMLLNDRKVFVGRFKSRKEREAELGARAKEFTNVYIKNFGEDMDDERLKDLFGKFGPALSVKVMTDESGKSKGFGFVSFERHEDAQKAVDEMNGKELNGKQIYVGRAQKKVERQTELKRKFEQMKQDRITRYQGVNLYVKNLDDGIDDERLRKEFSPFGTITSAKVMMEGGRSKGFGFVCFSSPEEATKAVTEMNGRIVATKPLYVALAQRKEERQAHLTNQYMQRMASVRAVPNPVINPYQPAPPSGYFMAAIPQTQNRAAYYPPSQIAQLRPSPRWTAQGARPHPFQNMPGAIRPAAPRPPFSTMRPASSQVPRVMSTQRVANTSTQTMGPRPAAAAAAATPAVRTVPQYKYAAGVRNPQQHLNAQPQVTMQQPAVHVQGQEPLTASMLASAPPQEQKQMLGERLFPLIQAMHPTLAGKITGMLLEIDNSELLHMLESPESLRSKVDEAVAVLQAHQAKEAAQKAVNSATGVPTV

O=C(N/N=C/c1ccncc1)c1cc2ccccc2cc1O
EC50 [1]: > 38 µM (not active) | EC50 [2]: 106 µM (active) | EC50 [3]: > 150 µM (inactive)

CC[N+]1(CC(O)COC2CC(C)CC(C)(C)C2)CCOCC1 (stereo not given)
IC50 [4]: 11.3 µM (active)

CC(=O)Nc1ccc(N2CC(C)(C)C2=O)cc1
EC50 [1]: > 38 µM (not active) | EC50 [3]: 38.4 µM (active)

Cc1cc2ccccn2c1C(=O)Nc1cccc(Cl)c1
IC50 [5]: > 100 µM (inactive)

CCN(CC)CCN(C(=O)c1cc2c(ccc3ccccc32)oc1=O)c1nc2cc3c(cc2s1)OCCO3
EC50 [6]: > 120 µM (inconclusive) | EC50 [7]: > 120 µM (not active) | EC50 [8]: 9.65 µM (active)

O=C(C[N+]12CCC(CC1)C(C(O)(c1ccccc1)c1ccccc1)C2)c1ccc(Br)cc1 (stereo not given)
EC50 [1]: 1.45 µM (active) | EC50 [3]: > 160 µM (inconclusive)

Cc1cc(C(=O)COC(=O)c2cc(Cl)c(O)c(Cl)c2)c(C)n1C
IC50 [4]: 11.5 µM (active)

COc1cccc2sc(NNC(=O)c3nc4ccccc4s3)nc12
EC50 [6]: 16.5 µM (active) | EC50 [7]: > 120 µM (not active) | EC50 [8]: > 120 µM (not active)

O=C(NN=C(NS(=O)(=O)c1ccc(Cl)cc1)c1ccccc1)c1cccc(Cl)c1
EC50 [9]: 7.54 µM (active) | EC50 [10]: > 120 µM (not active)

Nc1nc(Nc2ccccc2)nc(NCc2ccccc2)c1[N+](=O)[O-]
EC50 [6]: > 120 µM (not active) | EC50 [7]: 17 µM (active) | EC50 [8]: 44.7 µM (active)

Nc1ccc(Sc2ccc([N+](=O)[O-])cc2)cc1
EC50 [1]: > 38 µM (not active) | EC50 [3]: > 160 µM (inactive)

Cc1cc(OCC(O)CN2CCN(C)CC2)ccc1C(C)C (stereo not given)
IC50 [5]: > 100 µM (inactive)

O=C(CN(Cc1ccco1)C(=O)CNS(=O)(=O)c1ccc(Cl)cc1)NC1CCCCC1
IC50 [5]: > 100 µM (inactive)

CCCCCCNC(=O)CCNS(=O)(=O)c1ccc(C)cc1
EC50 [6]: > 120 µM (not active) | EC50 [7]: > 120 µM (not active) | EC50 [8]: > 120 µM (not active)

CCCNC(=O)C[C@@H]1C[C@H]2c3cc(NC(=O)Cc4ccncc4)ccc3O[C@H]2[C@H](CO)O1
AC50 [11]: 39.4 µM (active)

CCCCOc1ccc(C(=O)OC2CC(C)N(C)CC2C)cc1 (stereo not given)
IC50 [5]: 27.6 µM (active)

COc1ccc(NC(=O)N2CC3(C2)CN(C(=O)C2CCC2)[C@H](CO)c2c3c3ccc(OC)cc3n2C)cc1
AC50 [12]: 0.437 µM (active) | AC50 [13]: 0.372 µM (active) | AC50 [14]: 2.21 µM (active) | AC50 [15]: 0.22 µM (active)

CCCCn1c(=O)[nH]c(=O)c2c1nc(-c1ccc(-c3ccccc3Br)o1)n2CC
EC50 [1]: > 38 µM (not active) | EC50 [3]: > 150 µM (inconclusive)

CC1CCN(c2ccc(S(=O)(=O)Nc3cc(C(=O)O)cc(C(=O)O)c3)cc2[N+](=O)[O-])CC1
IC50 [4]: 9.99 µM (active)

COc1ccc(Nc2nc(N)c([N+](=O)[O-])c(NC3CCCCC3)n2)cc1
CC50 [16]: 32 µM (active) | EC50 [6]: 10.7 µM (active) | AC50 [17]: 3.53 µM (active) | EC50 [7]: 14.8 µM (active) | EC50 [8]: 17.2 µM (active)

CCc1ccc(-c2csc3ncn(Cc4ccc(C(=O)O)cc4)c(=O)c23)cc1
EC50 [1]: > 38 µM (not active) | EC50 [3]: > 150 µM (inconclusive)

CN1c2ccc(C#Cc3cccnc3)cc2[C@H]2[C@H](CCN2S(=O)(=O)c2ccc(F)cc2)[C@H]1CO
AC50 [12]: 1.05 µM (active) | AC50 [13]: 1.16 µM (active) | AC50 [14]: 1.7 µM (active) | AC50 [15]: 1.33 µM (active)

Cc1cnc(C(=O)Nc2ccccc2-c2ccc(C)o2)cn1
IC50 [5]: > 100 µM (inactive)

COc1ccccc1C(=O)NCCn1ccc2ccccc21
IC50 [18]: > 66 µM (inactive) | IC50 [19]: > 66 µM (inactive)

N#Cc1ccc(OCC(=O)Nc2cccc(S(=O)(=O)NC3=NCCCCC3)c2)cc1
IC50 [4]: 11.6 µM (active)

Cc1c(Cl)ccc(S(=O)(=O)Nc2cccnc2)c1Cl
EC50 [1]: > 38 µM (not active) | EC50 [3]: > 150 µM (inactive)

Brc1ccc2nc(N3CCCC3)sc2c1
IC50 [5]: 79.4 µM (inactive)

COc1ccc2oc(=O)c(C(=O)OCc3ccccc3)cc2c1
IC50 [18]: > 66 µM (inactive) | IC50 [19]: > 66 µM (inactive)

O=C(C[C@@H]1C=C[C@@H](NC(=O)Nc2ccc3c(c2)OCO3)[C@H](CO)O1)NCc1ccc(F)cc1
AC50 [11]: 4.77 µM (active)

Fc1ccc(-n2nnc(-c3nccs3)n2)cc1
IC50 [5]: 22.8 µM (active)

Cc1cc(C)n(CC(C)NC(=O)c2cc(COc3c(F)cccc3F)on2)n1 (stereo not given)
EC50 [6]: > 120 µM (not active) | EC50 [7]: > 120 µM (not active) | EC50 [8]: > 120 µM (not active)

CCOC(=O)/C=C1\CN(CCC(C)C)S(=O)(=O)c2ccccc21
IC50 [4]: 45.3 µM (active)

CCC(OC(=O)CC1Sc2ccccc2NC1=O)C(=O)NCC1CCCO1 (stereo not given)
IC50 [18]: > 66 µM (inactive) | IC50 [19]: > 66 µM (inactive)

CC(C)(C)[S@@+]([O-])N1Cc2cc(C(=O)N[C@@H]3CCN(Cc4ccccc4)C3)nc(-c3cccc(-c4cccnc4)c3)c2[C@H]1CCO
AC50 [12]: 2.01 µM (active) | AC50 [13]: 2.58 µM (active) | AC50 [14]: 1.94 µM (active) | AC50 [15]: 3.42 µM (active)

Brc1ccc(OCc2n[nH]c(-c3ccccn3)n2)cc1
IC50 [5]: > 100 µM (inactive)
